Each structure is given as a SMILES string. pIC50: −log10 of the molar value.

The assay in a line: Biochemical Assay: Test compounds were placed in a Greiner Bio-One (Monroe, N.C.) 1536-well black solid bottom assay plate. 200 millimolar (mM) Tris HCl, pH 7.4, 100 micromolar (μM) EDTA and 0.01% TWEEN-20™, final concentration, was used as the assay buffer. The LDHA reagent was 2 nanomolar (nM) Human LDHA (Meridian Life Science, Inc., Memphis, Tenn.), final concentration, in assay buffer.

As for `COc1ccc(-c2cc(O)n(-c3nc(C(=O)O)cs3)n2)cc1`, the pIC50 was less than 4.24.
Same read-out and setting: as for `O=C(O)c1csc(-n2nc(-c3ccc(F)cc3)cc2O)n1`, the figure is less than 4.24.
Turning to `O=C(O)c1csc(-n2nc(-c3ccc(Cl)cc3)cc2C(F)(F)F)n1`, the IC50 result is “in the range around 29000 nM”.
`NS(=O)(=O)c1ccc(Cc2c(-c3ccc(F)c(C#CCC4CC4)c3)nn(-c3nc(C(=O)O)cs3)c2CC2CC2)cc1F` had a negative-log IC50 (pIC50) greater than 7.00.
Still for that read-out and setting: the figure for `N#CC#Cc1cc(-c2nn(-c3nc(C(=O)O)cs3)c(CC3CC3)c2Cc2ccc(S(N)(=O)=O)c(F)c2)ccc1F` is greater than 7.00.
In turn, `NS(=O)(=O)c1ccc(Cc2c(-c3ccc(F)c(C#CC4CCOC4)c3)nn(-c3nc(C(=O)O)cs3)c2CC2CC2)cc1F` (centres undefined) showed a pIC50 greater than 7.00.
In turn, `Cc1ccc(C#Cc2cc(-c3nn(-c4nc(C(=O)O)cs4)c(CC4CC4)c3Cc3ccc(S(N)(=O)=O)c(F)c3)ccc2F)s1` had a pIC50 greater than 7.00.
Compound `NS(=O)(=O)c1ccc(Cc2c(-c3cccc(C#CC4CCCC4)c3)nn(-c3nc(C(=O)O)cs3)c2CC2CC2)cc1F` gave a pIC50 greater than 7.00.
Same read-out and setting: as for `C/C=C/c1cc(-c2nn(-c3nc(C(=O)O)cs3)c(CC3CC3)c2Cc2ccc(S(N)(=O)=O)c(F)c2)ccc1F`, the figure is greater than 7.00; as for `CC(C)(C)/C=C/c1cc(-c2nn(-c3nc(C(=O)O)cs3)c(CC3CC3)c2Cc2ccc(S(N)(=O)=O)c(F)c2)ccc1F`, greater than 7.00; as for `Cc1ccc(C#Cc2cccc(-c3nn(-c4nc(C(=O)O)cs4)c(CC4CC4)c3Cc3ccc(S(N)(=O)=O)c(F)c3)c2)s1`, greater than 7.00.
`NS(=O)(=O)c1ccc(Cc2c(-c3ccc(F)c(/C=C/C4CC4)c3)nn(-c3nc(C(=O)O)cs3)c2CC2CC2)cc1F` had a pIC50 greater than 7.00.
Consider `NS(=O)(=O)c1ccc(Cc2c(-c3ccc(F)c(C#CC(F)F)c3)nn(-c3nc(C(=O)O)cs3)c2CC2CC2)cc1F`, for which the pIC50 is greater than 7.00.
Still for that read-out and setting: the figure for `NS(=O)(=O)c1ccc(Cc2c(-c3ccc(F)c(C#CCN4CCCC4)c3)nn(-c3nc(C(=O)O)cs3)c2CC2CC2)cc1F` is greater than 7.00; for `C#Cc1cc(-c2nn(-c3nc(C(=O)O)cs3)c(CC3CC3)c2Cc2ccc(S(N)(=O)=O)c(F)c2)ccc1F` it is greater than 7.00.
The compound `CC(C)C#Cc1cc(-c2nn(-c3nc(C(=O)O)cs3)c(CC3CC3)c2Cc2ccc(S(N)(=O)=O)c(F)c2)ccc1F` had a negative-log IC50 (pIC50) greater than 7.00.
On the same count and under the same terms, as for `CC(F)C#Cc1cc(-c2nn(-c3nc(C(=O)O)cs3)c(CC3CC3)c2Cc2ccc(S(N)(=O)=O)c(F)c2)ccc1F` (centres undefined), the figure is greater than 7.00.
Turning to `NS(=O)(=O)c1ccc(Cc2c(-c3ccc(F)c(C#CC(F)(F)F)c3)nn(-c3nc(C(=O)O)cs3)c2CC2CC2)cc1F`, the half-inhibitory concentration (IC50) result is “in the range around 550 nM”.
`NS(=O)(=O)c1ccc(Cc2c(-c3ccc(F)c(/C=C/C4CCCC4)c3)nn(-c3nc(C(=O)O)cs3)c2CC2CC2)cc1F` showed a negative-log IC50 (pIC50) greater than 7.00.
In turn, `COCC#Cc1cc(-c2nn(-c3nc(C(=O)O)cs3)c(CC3CC3)c2Cc2ccc(S(N)(=O)=O)c(F)c2)ccc1F` had a negative logarithm of the IC50 (pIC50) greater than 7.00.
The same measure, in the same setting: the figure for `CC(C)(C)C#Cc1cc(-c2nn(-c3nc(C(=O)O)cs3)c(CC3CC3)c2Cc2ccc(S(N)(=O)=O)c(F)c2)ccc1F` is greater than 7.00.
On the same count and under the same terms, the figure for `NS(=O)(=O)c1ccc(Cc2c(-c3ccc(F)c(C#CC4CCC4)c3)nn(-c3nc(C(=O)O)cs3)c2CC2CC2)cc1F` is greater than 7.00; for `NS(=O)(=O)c1ccc(Cc2c(-c3ccc(F)c(C#CCCO)c3)nn(-c3nc(C(=O)O)cs3)c2CC2CC2)cc1F` it is greater than 7.00.
On the same count and under the same terms, the figure for `NS(=O)(=O)c1ccc(Cc2c(-c3ccc(F)c(C#CCC4CCCC4)c3)nn(-c3nc(C(=O)O)cs3)c2CC2CC2)cc1F` is greater than 7.00; for `CC#Cc1cc(-c2nn(-c3nc(C(=O)O)cs3)c(CC3CC3)c2Cc2ccc(S(N)(=O)=O)c(F)c2)ccc1F` it is greater than 7.00.
Compound `Cn1cncc1C#Cc1cc(-c2nn(-c3nc(C(=O)O)cs3)c(CC3CC3)c2Cc2ccc(S(N)(=O)=O)c(F)c2)ccc1F` showed a pIC50 greater than 7.00.
On the same count and under the same terms, as for `NS(=O)(=O)c1ccc(Cc2c(-c3ccc(F)c(C#Cc4cccs4)c3)nn(-c3nc(C(=O)O)cs3)c2CC2CC2)cc1F`, the figure is greater than 7.00; as for `NS(=O)(=O)c1ccc(Cc2c(-c3cccc(N4CCC(F)(F)CC4)c3)nn(-c3nc(C(=O)O)cs3)c2CC2CC2)cc1F`, greater than 7.00; as for `NS(=O)(=O)c1ccc(Cc2c(-c3cccc(N4CCCC(C(F)(F)F)C4)c3)nn(-c3nc(C(=O)O)cs3)c2CC2CC2)cc1F` (centres undefined), greater than 7.00.
`NS(=O)(=O)c1ccc(Cc2c(-c3ccc(F)c(OCC4CC4(F)F)c3)nn(-c3nc(C(=O)O)cs3)c2CC2CC2)cc1F` (centres undefined) gave a pIC50 greater than 7.00.
As to `NS(=O)(=O)c1ccc(Cc2c(-c3cccc(N4CCC(F)(F)C4)c3)nn(-c3nc(C(=O)O)cs3)c2CC2CC2)cc1F`, the IC50 entry was “in the range around 29000 nM”.
The compound `NS(=O)(=O)c1ccc(Cc2c(-c3cccc(N4CCCC(F)(F)C4)c3)nn(-c3nc(C(=O)O)cs3)c2CC2CC2)cc1F` showed a pIC50 greater than 7.00.
Consider `NS(=O)(=O)c1ccc(Cc2c(-c3ccc(F)c(C#CC4(F)COC4)c3)nn(-c3nc(C(=O)O)cs3)c2CC2CC2)cc1F`, for which the negative logarithm of the IC50 (pIC50) is greater than 7.00.
Compound `NS(=O)(=O)c1ccc(Cc2c(-c3ccc(F)c(C#CC4(O)CCOC4)c3)nn(-c3nc(C(=O)O)cs3)c2CC2CC2)cc1F` (centres undefined) gave a pIC50 greater than 7.00.
With `CCOC(=O)c1csc(-n2nc(-c3ccc(F)c(C#CC4CCCC4)c3)c(Cc3ccc(S(N)(=O)=O)cc3)c2CC2CC2)n1`, the IC50 result was “in the range around 29000 nM”.
`CCOC(=O)c1csc(-n2nc(-c3ccc(F)c(C#Cc4ccc(C)s4)c3)c(Cc3ccc(S(N)(=O)=O)c(F)c3)c2CC2CC2)n1` showed a pIC50 of less than 4.24.
`NS(=O)(=O)c1ccc(Cc2c(-c3ccc(F)c(-c4ccc(F)s4)c3)nn(-c3nc(C(=O)O)cs3)c2CC2CC2)cc1F` showed a pIC50 greater than 7.00.
Turning to `NS(=O)(=O)c1ccc(Cc2c(CC3CC3)nn(-c3nc(C(=O)O)cs3)c2-c2ccc(C(O)(C3CC3)C(F)(F)F)cc2)cc1F` (centres undefined), the IC50 entry was “in the range around 29000 nM”.
For `C=C(c1cc(-c2nn(-c3nc(C(=O)O)cs3)c(CC3CC3)c2Cc2ccc(S(N)(=O)=O)c(F)c2)ccc1F)C(F)(F)F`, the pIC50 is greater than 7.00.
Same read-out and setting: as for `CCOC(=O)c1csc(-n2nc(-c3ccc(F)c(C#CC4CCCC4)c3)c(Cc3cccc(S(N)(=O)=O)c3)c2CC2CC2)n1`, the figure is less than 4.24; as for `CCOC(=O)c1csc(-n2nc(-c3cccc(C#CC4CCCC4)c3)c(Cc3ccc(S(N)(=O)=O)c(F)c3)c2CC2CC2)n1`, less than 4.24.
Same read-out and setting: as for `NS(=O)(=O)c1ccc(Cc2c(-c3cccc(C(O)(C4CC4)C(F)(F)F)c3)nn(-c3nc(C(=O)O)cs3)c2CC2CC2)cc1F` (centres undefined), the figure is greater than 7.00; as for `NS(=O)(=O)c1ccc(Cc2c(-c3ccc(F)c(C#CC4CC4)c3)nn(-c3nc(C(=O)O)cs3)c2CC2CC2)cc1`, greater than 7.00; as for `C/C=C(\C)c1cc(-c2nn(-c3nc(C(=O)O)cs3)c(CC3CC3)c2Cc2ccc(S(N)(=O)=O)c(F)c2)ccc1F`, greater than 7.00.
`NS(=O)(=O)c1cccc(Cc2c(-c3ccc(F)c(C#CC4CCCC4)c3)nn(-c3nc(C(=O)O)cs3)c2CC2CC2)c1`: the IC50 entry is “in the range around 550 nM”.
`NS(=O)(=O)c1ccc(Cc2c(-c3ccc(F)c(C#CC4=CCCC4)c3)nn(-c3nc(C(=O)O)cs3)c2CC2CC2)cc1F`: the pIC50 is greater than 7.00.
In turn, `CS(=O)(=O)c1ccc(Cc2c(-c3ccc(F)c(C#CCC4CCCO4)c3)nn(-c3nc(C(=O)O)cs3)c2CC2CC2)cc1F` (centres undefined) gave a pIC50 greater than 7.00.
Same read-out and setting: as for `NS(=O)(=O)c1ccc(Cc2c(-c3ccc(F)c(C4CC4)c3)nn(-c3nc(C(=O)O)cs3)c2CC2CC2)cc1Cl`, the figure is greater than 7.00; as for `NS(=O)(=O)c1ccc(Cc2c(-c3ccc(F)c(C4=CCCC4)c3)nn(-c3nc(C(=O)O)cs3)c2CC2CC2)cc1F`, greater than 7.00.
Consider `NS(=O)(=O)c1ccc(Cc2c(-c3ccc(F)c(C#CC4(F)CCCC4)c3)nn(-c3nc(C(=O)O)cs3)c2CC2CC2)cc1F`, for which the pIC50 was greater than 7.00.
Consider `NS(=O)(=O)c1ccc(Cc2c(-c3ccc(F)c(C#CC4(O)COC4)c3)nn(-c3nc(C(=O)O)cs3)c2CC2CC2)cc1F`, for which the pIC50 was greater than 7.00.
In turn, `NS(=O)(=O)c1ccc(Cc2c(-c3ccc(F)c(C#CC4CCCC4)c3)nn(-c3nc(C(=O)O)cs3)c2CC2CC2)cc1` gave a pIC50 greater than 7.00.
On to `CCOC(=O)c1csc(-n2nc(-c3ccc(F)c(C#CC4CCCC4)c3)c(Cc3ccc(S(N)(=O)=O)c(F)c3)c2C2CC2)n1`, for which the IC50 result was “in the range around 29000 nM”.
In the case of `C=C(C)c1cc(-c2nn(-c3nc(C(=O)O)cs3)c(CC3CC3)c2Cc2ccc(S(N)(=O)=O)c(F)c2)ccc1F`, the pIC50 is greater than 7.00.
On the same count and under the same terms, as for `Cc1ccc(-c2cc(-c3nn(-c4nc(C(=O)O)cs4)c(CC4CC4)c3Cc3ccc(S(N)(=O)=O)c(Cl)c3)ccc2F)s1`, the figure is greater than 7.00.
Same read-out and setting: the figure for `NS(=O)(=O)c1ccc(Cc2c(-c3ccc(F)c(C#CC4CCCC4)c3)nn(-c3nc(C(=O)O)cs3)c2C2CC2)cc1F` is greater than 7.00.
On the same count and under the same terms, the figure for `Cc1oc(=O)oc1COC(=O)c1csc(-n2nc(-c3ccc(F)c(C#CC4CCCC4)c3)c(Cc3ccc(S(N)(=O)=O)c(F)c3)c2CC2CC2)n1` is less than 4.24.
`CC(C)=Cc1cc(-c2nn(-c3nc(C(=O)O)cs3)c(CC3CC3)c2Cc2ccc([SH+](N)[O-])c(F)c2)ccc1F` (centres undefined): the negative logarithm of the IC50 (pIC50) was greater than 7.00.
`CCOC(=O)c1csc(-n2nc(-c3ccc(F)c(C#CC4CC4)c3)c(Cc3ccc(S(N)(=O)=O)cc3)c2CC2CC2)n1`: the half-inhibitory concentration (IC50) result is “in the range around 29000 nM”.
Still for that read-out and setting: the entry for `CC#Cc1cc(-c2nn(-c3nc(C(=O)OCC)cs3)c(CC3CC3)c2Cc2ccc(S(N)(=O)=O)c(F)c2)ccc1F` is “in the range around 29000 nM”.
`NS(=O)(=O)c1ccc(Cc2c(-c3ccc(F)c(C#CC4(F)CCOC4)c3)nn(-c3nc(C(=O)O)cs3)c2CC2CC2)cc1F` (centres undefined) gave a pIC50 greater than 7.00.
Same read-out and setting: as for `NS(=O)(=O)c1ccc(Cc2c(-c3ccc(F)c(C#CC4(O)CCCC4)c3)nn(-c3nc(C(=O)O)cs3)c2CC2CC2)cc1F`, the figure is greater than 7.00.
Still for that read-out and setting: as for `CC1(C#Cc2cc(-c3nn(-c4nc(C(=O)O)cs4)c(CC4CC4)c3Cc3ccc(S(N)(=O)=O)c(F)c3)ccc2F)COC1`, the figure is greater than 7.00; as for `CC#Cc1cc(-c2nn(-c3nc(C(=O)O)cs3)c(CC3CC3)c2Cc2cccc(S(N)(=O)=O)c2)ccc1F`, greater than 7.00.

The values are drawn from ChEMBL document CHEMBL5728971, “Small molecule inhibitors of lactate dehydrogenase and methods of use thereof” (2022).
